We go through 4 molecules from ChEMBL document CHEMBL4814008, “Using porphyrins as albumin-binding molecules to enhance antitumor efficacies and reduce systemic toxicities of antimicrobial peptides” (Eur J Med Chem, 2021).

In general, inhibition in vivo refers to the share of the control response that was lost under treatment. For orientation: Kd means a measure of binding affinity in units of concentration. As usually defined, the IC50 is the concentration at which inhibition is half-maximal.

Data set [1] deals with MDA-MB-231. Kind of data set: Induction of apoptosis in human MDA-MB-231 cells assessed as necrotic cells at […] in presence of illumination by flow cytometric analysis. Format: functional. The settings on record: dose 0.25 µM. (Flow cytometry measures light scatter and fluorescence of single cells or particles in a stream.)
The nature of data set [2]: Drug localization in mitochondria of human MDA-MB-231 cells at 0.5 uM by DAPI staining based confocal laser scanning microscopic method. Format: ADME. The conditions noted are these: mda-mb-231, 0.5 µM.
The nature of data set [3]: Drug localization in nucleus of human MDA-MB-231 cells at 0.5 uM by DAPI staining based confocal laser scanning microscopic method. Format: ADME, subcellular. The settings on record: mda-mb-231, 0.5 µM.
Data set [4] concerns MDA-MB-231. The data set can be described thus: Induction of apoptosis in human MDA-MB-231 cells assessed as early apoptotic cells at […] by flow cytometric analysis. Format: functional. The conditions noted are these: dose 2.5 µM.
A short description of data set [5]: Drug uptake in tumor of BALB/c mouse xenografted with mouse 4T1 cells at 100 uM, iv measured after 120 hrs by fluorescence molecular tomography. The class given is ADME, organism-based, Neoplasm. The conditions noted are these: in vivo.
The nature of data set [6]: Drug uptake in human L02 cells by flow cytometric analysis. The class given is ADME, cell-based.
A short description of data set [7]: Toxicity in ICR mouse assessed as effect on heart morphology at 100 uM, iv measured after 24 hrs by H and E staining based light microscopic analysis. The class given is organism-based. The settings on record: in vivo.
Data set [8] has as its system 4T1. The data set can be described thus: Antitumor activity against mouse 4T1 cells xenografted in BALB/c mouse assessed as reduction in tumor weight at 2.4 mg/kg, iv dosed every 3 days for 23 days and illuminated with 670 nm laser light 30 mins after the first dose and measured on day 23. The class given is functional. The settings on record: 4T1, iv, 552 h, time 23 day.

Data set [9] deals with MDA-MB-231. Kind of data set: Induction of apoptosis in human MDA-MB-231 cells assessed as early apoptotic cells at […] in presence of illumination by flow cytometric analysis. Format: functional. The settings on record: dose 0.25 µM.
A short description of data set [10]: Hepatotoxicity in ICR mouse assessed as hepatocytes with intact nuclei and cytoplasm at 100 uM, iv measured after 24 hrs by H and E staining based light microscopic analysis. Format: toxicity, organism-based.
The test system of data set [11] is 4T1. Kind of data set: Antitumor activity against mouse 4T1 cells xenografted in BALB/c mouse assessed as inhibition of tumor growth at 2.4 mg/kg, iv dosed every 3 days for 23 days. Format: functional, organism-based. The conditions noted are these: time 23.0 day.
Data set [12] in a line: Binding affinity to 1-20% fetal bovine serum protein in PBS assessed as increase in fluorescence emission by fluorescence spectrophotometric analysis. The class given is ADME, cell-free, Bos taurus. The conditions noted are these: cattle.
Data set [13] deals with 4T1. The data set can be described thus: Anti-metastatic activity against mouse 4T1 cells xenografted in BALB/c mouse assessed as metastasized area in lungs at 2.4 mg/kg, iv dosed every 3 days for 23 days and illuminated with 670 nm laser light 30 mins after the first dose and measured on day 30 by hematoxylin and eosin staining based analysis (reference value: 44.8%). The settings on record: time 30 day. Format: functional.

For data set [14], the system named is MDA-MB-231. The data set can be described thus: Induction of apoptosis in human MDA-MB-231 cells assessed as necrotic cells at […] by flow cytometric analysis. Format: functional. The conditions noted are these: dose 2.5 µM.
In data set [15] the test system is Erythrocyte. The data set can be described thus: Induction of hemolysis in RBC (unknown origin) in absence of serum. The class given is cell-based.
Data set [16] concerns MDA-MB-231. Kind of data set: Phototoxicity against human MDA-MB-231 cells assessed as reduction in cell viability at 0.5 uM in presence of illumination by calcein-AM/PI staining based fluorescence analysis. The class given is functional.
In data set [17] the test system is 4T1. Kind of data set: Anti-metastatic activity against mouse 4T1 cells xenografted in BALB/c mouse assessed as metastasized area in lungs at 2.4 mg/kg, iv dosed every 3 days for 23 days and measured on day 30 by hematoxylin and eosin staining based analysis (reference value: 44.8%). The class given is functional. The settings on record: time 30 day.
In data set [18] the test system is 4T1. The data set can be described thus: Phototoxicity against mouse 4T1 cells in presence of illumination by MTT assay relative to control. Format: functional.
Data set [19] relates to 4T1. The data set can be described thus: Antitumor activity against mouse 4T1 cells xenografted in BALB/c mouse assessed as reduction in tumor weight at 2.4 mg/kg, iv dosed every 3 days for 23 days and measured on day 23. Format: functional. The conditions noted are these: 4T1, iv, 552 h, time 23 day.
A short description of data set [20]: Toxicity in ICR mouse assessed as effect on spleen morphology at 100 uM, iv measured after 24 hrs by H and E staining based light microscopic analysis. Format: organism-based. The settings on record: in vivo.
Data set [21] can be described thus: Time-dependent drug uptake in mouse 4T1 cells measured for 24 hrs by flow cytometric analysis. The conditions noted are these: 4t1, 24 h, TDE = time-dependent effect. Format: ADME, cell-based.
Data set [22] is described as follows: Toxicity in ICR mouse assessed as effect on kidney morphology at 100 uM, iv measured after 24 hrs by H and E staining based light microscopic analysis. Format: organism-based. The conditions noted are these: in vivo.
The test system of data set [23] is MDA-MB-231. Kind of data set: Cytotoxicity against human MDA-MB-231 cells assessed as reduction in cell viability at 5 uM by calcein-AM/PI staining based fluorescence analysis. Format: functional.
Data set [24] in a line: Binding affinity to 1-20% fetal bovine serum protein in PBS assessed as shift in Q-band by UV/Vis spectrophotometric analysis. Format: ADME, cell-free, Bos taurus. The settings on record: cattle.
Data set [25] is described as follows: Drug localization in lysosomes of human MDA-MB-231 cells at 0.5 uM by DAPI staining based confocal laser scanning microscopic method. Format: ADME, subcellular, Lysosome. The settings on record: mda-mb-231, 0.5 µM.
The nature of data set [26]: Drug uptake in human MDA-MB-231 cells by flow cytometric analysis. The class given is ADME, cell-based.
The test system of data set [27] is MDA-MB-231. Kind of data set: Cytotoxicity against human MDA-MB-231 cells assessed as reduction in cell viability at 0.5 uM by calcein-AM/PI staining based fluorescence analysis. Format: functional.
In another data set the target is Albumin (Homo sapiens, UniProt P02768). Kind of data set: Binding affinity to human serum albumin assessed as dissociation constant by fluorescence emission spectrophotometric analysis. The class given is ADME, cell-free.
The nature of data set [28]: Toxicity in ICR mouse assessed as effect on lungs morphology at 100 uM, iv measured after 24 hrs by H and E staining based light microscopic analysis. The class given is organism-based. The settings on record: in vivo.
In data set [29] the test system is Erythrocyte. The data set can be described thus: Induction of hemolysis in RBC (unknown origin) in presence of 10% FBS. Format: cell-based.
Data set [30] relates to 4T1. Kind of data set: Cytotoxicity against mouse 4T1 cells by MTT assay. Format: functional, cell-based.
The test system of data set [31] is 4T1. The data set can be described thus: Phototoxicity against mouse 4T1 cells in presence of illumination by MTT assay. The class given is functional, cell-based. The settings on record: 4T1, light or radiation study.
A short description of data set [32]: Hepatotoxicity in ICR mouse assessed as hepatocytes with extensive shrinking cytoplasm, destroyed intercellular connections, necrotic cells with smeared nuclei at 100 uM, iv measured after 24 hrs by H and E staining based light microscopic analysis. Format: toxicity, organism-based.
The next data set relates to CWR22R. The data set can be described thus: Cytotoxicity against human 22RV1 cells. Format: functional, cell-based.

The source made the active and inactive calls. The calls are words filed in the database; no cut-off is given here.

Albumin, sequence (P02768 whole entry): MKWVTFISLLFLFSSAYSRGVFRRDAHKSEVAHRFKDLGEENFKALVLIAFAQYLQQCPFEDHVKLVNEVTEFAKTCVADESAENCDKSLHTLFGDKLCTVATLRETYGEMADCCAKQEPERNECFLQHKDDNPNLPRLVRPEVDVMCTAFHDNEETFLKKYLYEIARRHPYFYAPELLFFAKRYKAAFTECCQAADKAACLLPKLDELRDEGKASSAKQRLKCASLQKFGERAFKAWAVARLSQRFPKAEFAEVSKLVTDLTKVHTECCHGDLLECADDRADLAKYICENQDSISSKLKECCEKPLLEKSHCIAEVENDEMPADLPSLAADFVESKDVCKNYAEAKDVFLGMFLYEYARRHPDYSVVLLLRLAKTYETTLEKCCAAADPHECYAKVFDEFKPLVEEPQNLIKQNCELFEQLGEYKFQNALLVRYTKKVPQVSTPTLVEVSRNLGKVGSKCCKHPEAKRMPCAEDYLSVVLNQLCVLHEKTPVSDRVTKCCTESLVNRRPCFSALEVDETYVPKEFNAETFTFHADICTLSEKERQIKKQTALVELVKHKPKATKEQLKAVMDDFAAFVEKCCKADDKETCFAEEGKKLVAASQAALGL

For `C=Cc1c(C)c2cc3nc(c4c5[nH]c(cc6nc(cc1[nH]2)C(C)=C6CC)c(C)c5C(=O)C4)[C@@H](CCC(=O)NCC(=O)NCC(=O)N[C@@H](CC(C)C)C(=O)N[C@@H](CCCCN)C(=O)N[C@H](CC(C)C)C(=O)N[C@@H](CC(C)C)C(=O)N[C@@H](CCCCN)C(=O)N[C@H](CCCCN)C(=O)N[C@@H](CC(C)C)C(=O)N[C@H](CC(C)C)C(=O)N[C@H](CCCCN)C(=O)N[C@@H](CCCCN)C(=O)N[C@@H](CC(C)C)C(=O)N[C@@H](CC(C)C)C(=O)N[C@H](CCCCN)C(=O)N[C@@H](CC(C)C)C(=O)N[C@@H](CC(C)C)C(N)=O)[C@@H]3C`, the Activity in the data set on MDA-MB-231 [1] is listed as 29%; in the data set with MDA-MB-231 [4] it was 7.48%; in [7], “Non-Toxic”; in the data set with MDA-MB-231 [9], 10.1%; in data set [10], “Non-Toxic”; in [12] it was “Active”. Besides, the Activity in the data set with 4T1 [13] was 1.5%; with MDA-MB-231 [14], 37.52%; in the data set on Erythrocyte [15] it was “Toxic”; in the data set with 4T1 [17], 4.7%; in the data set on 4T1 [18], 100%; in data set [20], “Non-Toxic”. The Activity entry in [22] was “Non-Toxic”; in [24], “Active”; in data set [28] it was “Non-Toxic”; in the data set with Erythrocyte [29], “Non-Toxic”; with 4T1 [30], “Dose-Dependent Effect”. Besides, the Drug uptake entry in [2] is listed as “Active”; in data set [3], “Not Active”; in data set [5], “Active”; in data set [6] it was “Not Active”; in [21], “Tde”; in [25] it was “Active”. Moreover, in data set [26], the Drug uptake entry was “Active”. Besides, the inhibition in vivo at 2.4 mg/kg with 4T1 [8] came out at 98.4%; in the data set on 4T1 [19], 90.1%. In addition, the outcome in the data set on 4T1 [11], in the data set on MDA-MB-231 [16] and in the data set on MDA-MB-231 [23] was Active. The outcome with MDA-MB-231 [27] was inactive. The Kd on Albumin came to 363 nM. Also, the IC50 is 1690 nM in the data set with 4T1 [30] and 380 nM with 4T1 [31].

As for `CCN(CC)c1ccc2c(-c3ccccc3C(=O)NCC(=O)NCC(=O)N[C@@H](CC(C)C)C(=O)N[C@@H](CCCCN)C(=O)N[C@H](CC(C)C)C(=O)N[C@@H](CC(C)C)C(=O)N[C@@H](CCCCN)C(=O)N[C@H](CCCCN)C(=O)N[C@@H](CC(C)C)C(=O)N[C@H](CC(C)C)C(=O)N[C@H](CCCCN)C(=O)N[C@@H](CCCCN)C(=O)N[C@@H](CC(C)C)C(=O)N[C@@H](CC(C)C)C(=O)N[C@H](CCCCN)C(=O)N[C@@H](CC(C)C)C(=O)N[C@@H](CC(C)C)C(N)=O)c3ccc(=[N+](CC)CC)cc-3oc2c1`, the Activity entry in [7] was “Non-Toxic”; in the data set with Erythrocyte [15], “Toxic”; with 4T1 [17], 14.5%; in data set [20], “Non-Toxic”; in data set [22], “Non-Toxic”; in data set [32], “Toxic”. The Activity result (in data set [28]; in the data set on Erythrocyte [29]) was “Non-Toxic” each time. Moreover, in the data set on 4T1 [11], the outcome was Active. Also, the inhibition in vivo at 2.4 mg/kg with 4T1 [19] was 47.3%.

In the case of `CC(C)C[C@H](NC(=O)[C@H](CC(C)C)NC(=O)[C@@H](CCCCN)NC(=O)[C@H](CC(C)C)NC(=O)[C@H](CC(C)C)NC(=O)[C@H](CCCCN)NC(=O)[C@@H](CCCCN)NC(=O)[C@@H](CC(C)C)NC(=O)[C@H](CC(C)C)NC(=O)[C@@H](CCCCN)NC(=O)[C@H](CCCCN)NC(=O)[C@H](CC(C)C)NC(=O)[C@@H](CC(C)C)NC(=O)[C@H](CCCCN)NC(=O)[C@H](CC(C)C)NC(=O)CNC(=O)CN)C(N)=O`, the midpoint of inhibition with CWR22R, the IC50, lay at 6000 nM.

Consider `C=Cc1c(C)c2cc3nc(c4c5[nH]c(cc6nc(cc1[nH]2)C(C)=C6CC)c(C)c5C(=O)C4)[C@@H](CCC(=O)O)[C@@H]3C` [PYROPHEOPHORBIDE A], for which the Drug uptake entry in [6] and in data set [26] was “Active” throughout. In addition, in the data set on 4T1 [18], the Activity worked out at 90%. Also, the dissociation constant (Kd) at Albumin was found to be 89.3 nM. The IC50 in the data set on 4T1 [31] was determined as 130 nM.
